Counter-ions that a name gives are not always drawn.
Legend:
[1] = system: tumour necrosis factor-α (TNF-α); assay: Mouse Tumour Necrosis Factor Test (Test B), mouse endotoxin shock model, serum TNF-α by ELISA; type: in vivo, BALB/c mice; conditions: Mus musculus; minimum effective oral dose giving significant reduction in serum TNF-α of ≥35%; dosed 2 h before LPS i.p.; ≤ = active at dose given but not tested at lower doses; read-out: MTNF:MED
Source text: Preferred compounds of the present invention are active in an in-vivo test which determines the ability of the compounds to inhibit the release of tumour necrosis factor-α (TNF-α) in a mouse endotoxin shock model (Test B). This model is similar to that described by Zuckerman and Bendele (1989), Infection and Immunity 57 (10): p3009-3013.
Each compound of formula I was combined with a carrier of a solution of 1.5% v/v sorbitan esters under the trade name Tween 80 and 0.25% v/v cellosize in sterile water (100 µl) and was administered orally to a group of four BALB/c mice. The concentration of compound was such as to provide dosages selected from 100, 30, 10, 3, 1, 0.1 and 0.03 mg/kg. Two hours after such oral administration, lipopolysaccharide (LPS) (E. coli 0127:B8) (100 µg) in sterile water (0.2 ml) was administered intraperitoneally to the test mice.
A control group of eight BALB/c mice was treated in a similar manner as the test group except that no test compound was included with the carrier.
One hour after LPS administration the mice were killed and blood was collected by cardiac puncture. The blood was incubated at 20°C for 2 hours and the serum was separated from the clotted blood following centrifugation. Serum tumour necrosis factor-α (TNF-α) levels were assayed by an enzyme-linked immunosorbent assay (ELISA) and the concentration of TNF-α in each of the drug-treated groups was compared with the control group by one-way analysis of variance followed by a multiple t-test.
The ELISA was carried out by coating a 96-well vinyl assay plate (Costar) overnight at 4°C with 50 µl per well of 2 µg/ml hamster anti-mouse TNF monoclonal antibody in 0.1M sodium hydrogen carbonate buffer at pH 8.2. After washing the plate with phosphate buffered saline (PBS) containing 0.05% v/v sorbitan esters under the trade name Tween 20 (wash buffer), a blocking/dilution buffer (10% sheep serum in PBS containing 0.1% v/v sorbitan esters under the trade name Tween 20 (200 µl)) was aliquoted to each well and incubated at 37°C for 0.5 hours. After aspirating the blocking buffer, the serum samples and pure TNF (as a standard) diluted in blocking/dilution buffer, were added to the wells and incubated at 37°C for 2 hours. After washing with the wash buffer, a polyclonal rabbit anti-mouse TNF-α antibody in blocking/dilution buffer (100 µl of a 1 in 10,000 dilution) was added and incubated for a further 1.5 hours at 37°C. After further washes, anti-rabbit IgG peroxidase conjugate (100 µl of a 1 in 4000 dilution) was added and incubated at 37°C for 0.5 hours. After further washing, the substrate solution (100 µl per well of 0.1 mg/ml 3,3', 5,5'-tetramethylbenzidine dihydrochloride in 0.1M phosphate citrate buffer, pH 5.0, to which 2 µl of 30% hydrogen peroxide per 10 ml was added just before use) was added and the colour allowed to develop. The reaction was stopped by the addition of 1M sulphuric acid (25 µl) and the optical density read in a multichannel spectrophotometer at 450 nm. The mean TNF-α concentration was determined by comparison with the standard curve and the mean TNF-α concentration for each group compared with that produced by the control group. Drug treatments which cause a statistically significant reduction in TNF-α concentration of ≥35% at a single dose at 100 mg/kg or less were considered active.

[2] = system: Zymosan Stimulated Macrophages; assay: Inhibition of Arachidonic Acid Release from Zymosan Stimulated Macrophages (Test D); type: cell-based, MF1 mice; conditions: Mus musculus, Macrophage, tested at 100, 50, 20, 10, 5 and 1 µM
Method: Female MF1 mice (weighing 20 to 25 g) were killed using a rising concentration of CO2. The mice were laid on their backs and the abdomens wiped with 70% alcohol. The skin was pulled back, exposing the peritoneal wall. Medium A (5 ml) (see below) was injected into the peritoneal cavity of each mouse followed by approximately 1 ml of air using a 20 ml syringe and a 21G x 40 mm needle in order to form a suspension of macrophage cells. The medium and cells were then removed using a 19G x 40 mm needle. The resulting suspension was returned to a sterile beaker kept on ice. The extracts from all the mice were pooled and this pooled cell suspension was counted using a Coulter counter and adjusted to a final cell count of 1 - 1.3 x 10^6 cells/ml prior to labelling with [^3H]-arachidonic acid. Typically five mice provided sufficient cells for each multiwell plate. Sufficient [^3H]arachidonic acid in ethanol to give a final concentration of 1.6 µCi/ml (equivalent to 40 µCi/plate) was blown to dryness under nitrogen. The arachidonic acid was then resuspended in 1 or 2 ml of the cell suspension which was then mixed with the remainder of the cell suspension in a centrifuge bottle. The labelled cell suspension was then plated out into sterile plastic 96 flat-bottomed well plates (250 µl per well) and incubated overnight at 37°C in a moist atmosphere of 5% CO2, 95% air. The following day, non-adherent cells were removed by washing 3 times with sterile phosphate buffered saline (PBS). The adherent peritoneal macrophages were then cultured for a further 24 hours in the presence or absence of drugs, in medium B (see below) at 37° in a 5% CO2 atmosphere in order to measure the effects of drugs on the spontaneous release of arachidonic acid in the absence of stimulus. After this incubation, supernatants were removed to give media 1 and stored in sealed multi-well plates at 4°C prior to scintillation counting. Drugs which potentiated spontaneous release of arachidonic acid (125% of controls) were deemed to be toxic at the concentration at which this phenomenon occurred. The supernatants were replaced by fresh medium C containing fresh drug and a stimulus. Three drugs were tested at six concentrations (100, 50, 20, 10, 5 and 1 µM) in replicates of four on each plate. The other wells contained controls consisting of a positive control (e.g. dexamethasone), medium (B) only and medium C only. Incubation was then continued for a further 5 hours, whereupon the supernatants were collected to give media 2 and the adherent cells washed with PBS. The cells were then lysed with 100 µl of 0.1% TRITON® X100 in a 0.1% solution of bovine serum albumin in 0.9% saline and mechanically disrupted to give cell lysates. These supernatants (media 2) and cell lysates (Cells) were also stored in sealed multi-well plates at 4°C prior to scintillation counting. 200 µl aliquots of media, or 100 µl aliquots of cells were counted using 2 ml of OPTIPHASE "HIGH SAFE" (Trademark of LKB) as scintillant. […] The value for the arachidonic acid release in the absence of stimulus (spontaneous, cpm of media 2) from cells which had been exposed to neither stimulus nor drug was subtracted from all equivalent values (cpm media 2, stimulated with or without drug) to give the net stimulated release. The percentage inhibition of arachidonic acid release caused by a drug may then be calculated using the following equation. % Inhibition = 100 -(net stimulated release in presence of drug x 100)/(net stimulated release in absence of drug) [formula] […] The zymosan stimulant was prepared as follows:- zymosan (200mg) (supplied by Sigma) was added to PBS (20ml). The mixture was boiled for 30 minutes and the volume restored to 20ml with water. The zymosan was harvested by centrifugation at 500Xg for 5 minutes, washed twice by resuspension in PBS (10ml) and centrifugation. After the final separation, the zymosan was resuspended in 20ml PBS and stored as lml aliquots at -20°C. […]

[3] = system: lymphocyte proliferation (BALB/c responder and mitomycin C treated C57BL/6 stimulator spleen cells); assay: Mixed Lymphocyte Reaction (Test A), one-way MLR, tritiated thymidine incorporation; type: cell-based, mice; conditions: Mus musculus; concentration causing 50% inhibition of lymphocyte proliferation, by linear interpolation; ≤ = active at this concentration but not tested at lower doses
Method: A mixed lymphocyte reaction (MLR) occurs when lymphocytes from two genetically dissimilar individuals, or inbred strains of mice are cultured together. An MLR results in the activation and proliferation of lymphocytes, which is measured by the incorporation of radiolabelled thymidine into the cellular DNA synthesised during cell division. A 'one-way' MLR is used to determine the immunosuppressive activity of test compounds in vitro. In this reaction one population of spleen cells serves as the stimulator cells and is treated with mitomycin C to prevent cell division. Spleen cells from a second allogeneic population (responder cells) are untreated and when mixed with the stimulator cells are able to undergo division which is measured. The degree of proliferation is measured in the presence and absence of test compound to assess the immunosuppressive activity of the compound.
The techniques for carrying out lymphocyte proliferation assays including MLRs are well known, eg Bradley, pages 156-166, in Mishell and Shiigi, Eds. Selected Methods in Cellular Immunology (Freeman, San Francisco, 1980); and Battisto et al, methods in Enzymology 1987; 150: 83-91. Various slight modifications of these techniques are in use and that used herein is described in Gibb, Webber and Bowen, J Immunological Methods 1985; 81: 107-113.
Cell suspensions obtained from the spleens of female BALB/c and C57BL/6 strain mice of between 6 and 9 weeks of age were used as sources of responder and stimulator cells respectively. The mice were killed using a rising concentration of CO2 and the spleens removed aseptically and teased using a scalpel and forceps to produce a single cell suspension in Hanks balanced salt solution (HBSS). The suspensions were filtered through cell strainers (Falcon), sedimented by centrifugation and resuspended in Tris-buffered ammonium chloride pH 7.2 (medium D) to lyse the erythrocytes. The cells were sedimented again and washed twice in HBSS before resuspending in complete RPMI 1640 tissue culture medium (medium E). The C57BL/6 cells were resuspended to 9 mls per spleen and a solution of mitomycin C at 400 µg/ml in medium E added to give a final concentration of 40 µg/ml. After incubation of the C57BL/6 cells at 37°C for 30 minutes in an atmosphere of 5% CO2 and 95% air, the cells were sedimented and washed 3 times in medium E. Both cell suspensions were diluted in medium E to 5 x 10^6 cells/ml. 100µl of each of the responder and stimulator cell suspensions were aliquoted into the wells of 96 well flat bottom microtitre plates containing 50 µl of test compound at an appropriate dilution (initially 50 µM diluted in medium E from a stock solution at 100 mM in dimethyl sulphoxide) giving a final test compound concentration of 10 µM (final dilution). Compounds active at this concentration were tested at further final dilution of 1 µM, 0.1 µM and 0.01 µM and 0.001 µM to determine the concentration of test compound which causes 50% inhibition of the immune response (IC50). After four days of culture at 37°C in a humidified atmosphere of 5% CO2 and 95% air, 1 µCi of tritiated thymidine in 20 µl of medium E was added to each well and the plates incubated for a further 24 hours. Cells were then harvested onto Inotech G7 glass fibre filter mats using an Inotech cell harvester. The filters were transferred to vials to which 2 ml of Packard Emulsifier-Safe scintillation fluid was added and the radioactivity from the incorporated thymidine was counted in a Packard liquid scintillation counter. The counts per minute (CPM) reflect the degree of lymphocyte proliferation. The data were analysed to determine the percentage inhibition of lymphocyte proliferation by the test compound. […]

| SMILES | minimal effective dose [1] [mg/kg] | IC50 [2] [µM] | IC50 [3] [µM] |
| --- | --- | --- | --- |
| O=C(CCCN1CCC(CCn2ccnc2)CC1)c1ccccc1 [Example 88, 4-[2-(Imidazol-1-yl)ethyl]-1-(4-oxo-4-phenylbutyl)piperidine] | ≤ 30 | 52 |  |
| c1ccc(CCCC2CCN(CCn3ccnc3)CC2)cc1 [Example 96, 1-[2-(imidazol-1-yl)ethyl]-4-(3-phenylpropyl)piperidine, dihydrochloride monohydrate] |  | 34 | 0.01 |
| c1ccc(CCCN2CCCC(CCn3ccnc3)C2)cc1 (stereo not drawn) [Example 99, 3-[2-(Imidazol-l-yl)ethyl]-1-(3-phenylpropyl)piperidine] | 100 | 58 |  |
| c1ccc(CCCN2CCCCC2CCn2ccnc2)cc1 (stereo not drawn) [Example 100, 2-[2-(Imidazol-1-yl)ethyl]-1-(3-phenylpropyl)piperidine] | 100 | 27 |  |
| c1ccc(CCCN2CCCC(Cn3ccnc3)C2)cc1 (stereo not drawn) [Example 101, 3-Imidazol-1-ylmethyl-1-(3-phenylpropyl)piperidine] | 100 | 18 |  |
| CC(C)c1nccn1CCC1CCN(CCCc2ccccc2)CC1 [Example 106, 4-[2-(2-Isopropylimidazol-1-yl)ethyl]-1-(3-phenylpropyl)piperidine] |  | 22 | 0.5 |
| CCc1nccn1CCC1CCN(CCCc2ccccc2)CC1 [Example 107, 4-[2-(2-Ethylimidazol-1-yl)ethyl]-1-(3-phenylpropyl)piperidine] |  | 22 | ≤ 0.01 |
| CCCc1nccn1CCC1CCN(CCCc2ccccc2)CC1 [Example 110, 1-(3-Phenylpropyl)-4-[2-(2-propylimidazol-1-yl)ethyl]piperidine] |  | 20 | 0.2 |
| c1ccc(CCCN2CCC(CCn3nccn3)CC2)cc1 [Example 120, 1-(3-Phenylpropyl)-4-[2-(2H-1,2,3-triazol-2-yl)ethyl]piperidine] |  | 100 | 4.2 |
| c1ccc(CCCN2CCC(CCn3ncnn3)CC2)cc1 [Example 121, 1-(3-Phenylpropyl)-4-[2-(2H-tetrazol-2-yl)ethyl]piperidine] | 100 |  | ≤ 1 |
| c1ccc2c(c1)CCC(CN1CCC(CCn3ccnc3)CC1)C2 (stereo not drawn) [Example 125, 4-[2-(Imidazol-1-yl)ethyl]-1-(1,2,3,4-tetrahydronaphth-2-ylmethyl)piperidine] | 30 |  | 2.2 |
| CC(CCN1CCC(CCn2ccnc2)CC1)c1ccccc1 (stereo not drawn) [Example 126, 4-[2-(Imidazol-1-yl)ethyl]-1-(3-phenylbutyl)piperidine] | ≤ 100 |  | 3.7 |
